Test results published in US20160137630A1, “INDUCTION OF GATA2 BY HDAC1 AND HDAC2 INHIBITORS” (ACETYLON PHARMACEUTICALS, INC., priority 2014, published 2016).
Where two headings read alike, the source gives them in different places.

Key:
[1] = system: BFU-E colonies derived from human bone marrow mononuclear cells; assay: % HbG mRNA in BFU-E colonies; format: cell-based; details: FIG. 18A
Description: Increases in % HbG resulting from HDAC1/2 inhibition were due to increased HbG and decreased HbB (FIGS. 18B, 21D and 21E).

Gata2 regulatory regions [2] = assay: ChIP-QPCR of histone acetylation at Gata2 regulatory regions; format: cell-based
Description: In chromatin state maps these histone modifications, especially H3K9ac and H3K27ac, have been associated with active regulatory regions, such as enhancers and promoters of actively transcribed genes. The differentiation profile was unaffected by compound treatment and similar to that of cells used in experiments above (FIG. 23B).

[3] = system: K562 erythroleukemia cells; assay: Gata2 mRNA in K562 cells; format: cell-based; details: 3 days, FIG. 3
[4] = blood cell counts in rats; format: in vivo; details: rat
Procedure: I. A. Rats were dosed once daily by oral gavage for 6 consecutive days at 0 mg/kg, 10 mg/kg, or 30 mg/kg per dose (See FIG. 25A). Dosing days are indicated by a down arrow (FIG. 25A). Peripheral blood was drawn on the indicated days and analyzed for drug level in plasma (PK), complete blood counts (CBC), or isolation of total ribonucleic acid (RNA). […] For each individual rat, white blood cell counts were expressed relative to their predose level (time=day 0). Points are the average of n=4 animals with error bars showing the standard deviation.

Gata2 regulatory regions [5] = assay: Gata2 ChIP-seq at the Gata2 locus; format: cell-based; details: −1.8 kb region
Description: As above, differentiation profiles of compound treated cells were highly similar to control cells (FIG. 23A). It was observed that Gata2 occupancy at the Gata2 locus is tightly correlated between K562 and primary erythroid progenitors. In both cases, binding was limited to the +9.5, −1.8, −2.8, and −3.9 kb regulatory regions (data not shown).

[6] = dosing schedule study in rats; format: in vivo, rat; details: 30 mg/kg
Procedure: IV. Rats were dosed with 30 mg/kg once daily by oral gavage according to the above schedule. […] Group 1=daily dosing, Group 2=5 on 2 off, Group 3=3 on 4 off, Group 4=every other day, Group 5=control. N=4 animals per group (FIG. 28A).
Data points are the average of N=4 animals. HbE2 mRNA level was determined by quantitative real time PCR and expressed relative to HbB mRNA control. Data for each animal was then normalized to the expression level prior to the onset of dosing (average of day −3 and day 0 values).
Data points are the average of N=4 animals.

[7] = system: Human CD34+ bone marrow cells; assay: erythroid maturation in CS1 by CD71/GlyA flow cytometry; format: cell-based; details: 1 μM
Description: To investigate the effects of HDAC inhibition on later stages of erythroid maturation, differentiation in CS1 was followed by flow cytometry using fluorescent antibodies against the transferrin receptor (CD71) and glycophorin A (GlyA). […] The majority of vehicle control cells continued to differentiate, becoming CD71^posGlyA^pos by day 8. […] CD71^posGlyA^mid cells are equivalent to proerythroblasts (ProE), while CD71^posGlyA^pos cells include the more differentiated basophilic and polychromatic erythroblasts.

HbG mRNA [8] = assay: HbG mRNA levels in peripheral blood of monkeys; format: in vivo, cynomolgus monkey; details: monkey, 25 and 75 mg/kg; FIG. 27C-D
Procedure: (§1) B. Cynomolgus monkey were dosed once daily by oral gavage for 5 consecutive days at 0 mg/kg, 25 mg/kg, or 75 mg/kg per dose (FIG. 25B). Sampling as described in ‘A’.
For each individual monkey, HbG mRNA was expressed relative to HbB mRNA and then normalized to their predose level (time=day 0). Points are the median of n=3 animals with error bars showing the range.

[9] = system: erythroblasts derived from CD34+ cells isolated from human bone marrow; assay: QRT-PCR time course of mRNA expression during erythroid differentiation; format: cell-based
Description: Gata2 mRNA was induced while Gata1 mRNA was unaffected. The culture system was as described by Sankaran et al., “Human fetal hemoglobin expression is regulated by the developmental stage-specific repressor BCL11A”, Science, vol. 322(5909), pp. 1839-42 (2008).
Gata2 mRNA was induced while Gata1 mRNA was unaffected. The culture system as described by Bradner et al., PNAS, vol. 107(28), pp. 12617-22 (2010). […]
The cells were then differentiated by exposure to either vehicle or Compound 001. RNA was measured at days 0, 2, 3, 4, 5, 6, and 8.
Gata1 increased and Gata2 decreased in control cells during the 5 days differentiation period, a result consistent with the known expression pattern of these genes during erythropoiesis (FIG. 1C).

HbG mRNA [10] = assay: % HbG mRNA induction in 2-phase culture systems CS1 and CS2; format: cell-based, human
Description: Then, the cells were differentiated by exposure to either vehicle (control) or Compound 001. RNA samples of HbG were taken at days 0, 3, 5, and 8. […] Staining cells with a FITC-conjugated anti-HbF antibody and flow cytometry was used to measure induction of fetal hemoglobin.

[11] = pharmacokinetics of Compound 001 in cynomolgus monkeys; format: in vivo; details: cynomolgus monkey, plasma, read-out: minimum drug exposure for the entire dosing period
Procedure: as §1
C. […] Points are the average of replicate animals, error bars are the standard deviation of replicate animals (FIG. 25C).

[12] = blood cell counts in monkeys; format: in vivo, cynomolgus monkey; details: monkey
Procedure: as §1
For each individual monkey, white blood cell counts were expressed relative to their predose level (time=day 0). Points are the average of n=3 animals with error bars showing the standard deviation.

sickle donor cells = assay: HbG induction in sickle donor cells; format: cell-based; details: peripheral blood mononuclear cells from four different donors; FIG. 11B
Description: Then, the cells from each donor were differentiated by exposure to either vehicle (control) or Compound 001. RNA samples of HbG were taken from each group of donor cells at days 0, 3, and 5.

[13] = every other day dosing schedule
[14] = 1 μM for 6 days, culture conditions supporting late erythroblasts, FIG. 1C
[15] = 1 μM for 8 days, culture conditions supporting early erythroblasts, FIG. 1B

In the case of `Nc1ccc(-c2cccs2)cc1NC(=O)c1ccc2nc(N3CCNCC3)ccc2c1` [Compound 001, N-(2-amino-5-(thiophen-2-yl)phenyl)-2-(piperazin-1-yl)quinoline-6-carboxamide], the “% HbG” value [1] is reported as “increased % HbG in a dose-dependent manner”, the “increase in histone H3K9, H2BK5, and H3K27 acetylation” value (Gata2 regulatory regions [2]; +9.5 kb and −3.9 kb regions) is reported as 3 fold and the “increase in histone H3K9, H2BK5, and H3K27 acetylation” value (Gata2 regulatory regions [2]; −1.8 kb and −2.8 kb regulatory regions) is reported as 6 fold. The “Gata2 mRNA” value [3] was “dose dependent response”, the RBC or platelets [4] was “no detected affect” and the “time of peak white blood cell suppression after the last dose” value [4] was 1 days. The “time to recovery of white blood cell counts to baseline after the last dose” value [4] was 5 days, the white blood cells ([4]; 10 or 30 mg/kg for 6 days) was “reversible suppression” and the “maximum increase in Gata2 binding (peak height)” value (Gata2 regulatory regions [5]) was 3 fold. For the same compound, the “mode of HbF expression (HbE2 mRNA pattern)” value ([6]; 3 on 4 off dosing schedule) was “heterocellular mode of HbF expression”, the “myelosuppression (white blood cell counts)” value ([6]; 3 on 4 off dosing schedule) was “greater myelo suppression” and the “mode of HbF expression (HbE2 mRNA pattern)” value [6, 13] was “pancellular mode of HbF expression”. For the same compound, the “myelosuppression (white blood cell counts)” value [6, 13] was “less myelosuppression”, the “erythroid differentiation (CD71/GlyA)” value ([7]; by day 8) was “block differentiation of proerythroblasts to basophilic erythroblasts” and the “erythroid differentiation (CD71/GlyA)” value ([7]; first 5 days) was “differentiated normally”. The “HbG mRNA relative to HbB mRNA, normalized to predose” value (HbG mRNA [8]) was “dose-dependent increase”, the “Gata1 mRNA” value [9, 14] was “unaffected” and the “Gata2 mRNA” value [9, 14] was “induced”. The “Gata1 mRNA” value [9, 15] was “unaffected”, the “Gata2 mRNA” value [9, 15] was “induced” and the “Klf1 mRNA” value ([9]; QPCR, FIG. 1N) was “unaffected”. The “decrease in Bcl11a mRNA” value ([9]; QRT-PCR time course) was 2 fold, the “decrease in Sox6 mRNA” value ([9]; QRT-PCR time course) was 10 fold and the “increase in Gata2 mRNA” value ([9]; QRT-PCR time course) was 8 fold. The “Gata2 increase relative to control cells” value ([9]; day 2) was 2 fold, the “Gata2 increase relative to control cells” value ([9]; day 5) was 5 fold and the “% HbG” value (HbG mRNA [10]; 1 μM, increased from 10%) was 46%. For the same compound, the “induction in % HbG” value (HbG mRNA [10]; differentiation phase, both culture systems, FIG. 10B, 21A-C) was “dose- and time-dependent induction”, the concentration at 5 days ([11]; high dose (75 mg/kg once daily oral gavage, 5 days)) was no less than 5000 nM and the concentration at 5 days ([11]; low dose (25 mg/kg once daily oral gavage, 5 days)) was no less than 1000 nM. The RBC or platelets [12] was “no detected affect”, the “time of peak white blood cell suppression after the last dose” value [12] was 1 days and the “time to recovery of white blood cell counts to baseline after the last dose” value [12] was 5 days. The white blood cells ([12]; 25 or 75 mg/kg for 5 days) was “reversible suppression” and the HbG (sickle donor cells) was “induced HbG”.
